Values after ≈ are worked out from the molar mass of the structure shown. Counter-ions that a name gives are not always drawn. Like-named read-outs stand apart in the source and are kept apart here.
How the values were obtained:
H. pylori [1] = assay: IC50 against H. pylori, micro broth dilution test; format: cell-based, Helicobacter pylori; conditions: Helicobacter pylori, ATCC43504; H. pylori ATCC 43504, micro broth dilution, 72 h, OD 600 nm; read-out: IC50 value against H. pylori ± SEM
H. pylori [2] = assay: MIC against H. pylori, agar dilution method; format: cell-based, Helicobacter pylori; conditions: Helicobacter pylori, ATCC43504; H. pylori ATCC 43504, agar dilution; read-out: MIC value against H. pylori ± SEM
Jack bean urease = target: T1, Jack bean urease (Canavalia ensiformis, UniProt P07374); assay: biochemical; format: biochemical
T1 construct: purchased Sigma Aldrich
Protocol: Reaction mixture comprising 40 μL of buffer (K2HPO4: 10 mmol/L, urea: 100 mmol/L, […]: 10 mmol/L, EDTA: 1 /L mmol, pH = 8.2) and 5 U/mL enzyme (10 μL) were pre-incubated with 10 μL of synthesized compounds (1 mM) and substrate urea (1 mM) were incubated at room temperature in 96 well plate for half an hour. After the incubation at room temperature, absorbance was taken at specific wavelength (630 nm) employing a microplate reader (Bio-Tek, USA) with R1 and R2 reagents in each well. The reactions were measured in triplicate fashion. To calculate the inhibition percentage following equation was used.
Percentage inhibition = 100 –[tested compound/control compound] × 100.

Caco-2 A-B permeability = format: in vitro ADME; conditions: human, pH 6.5–7.4, test concentration = MIC against H. pylori (19-50 μM), reference drugs 10 μM
Protocol: The apparent permeability coefficient (Papp) of the test compound was calculated as follows: Papp(cm/s)=VR*CR,end/Δt*1/A*(CD,mid‐CR,mid) where VR is the volume of the receiver chamber. CR,end is the concentration of the test compound in the receiver chamber at the end time point, Δt is the incubation time and A is the surface area of the cell monolayer. CD,mid is the calculated mid-point concentration of the test compound in the donor side, which is the mean value of the donor concentration at time 0 minute and the donor concentration at the end time point. CR,mid is the mid-point concentration of the test compound in the receiver side, which is one half of the receiver concentration at the end time point. Concentrations of the test compound were expressed as peak areas of the test compound.
The recovery of the test compound was calculated as follows: Recovery(%)=VD*CD,end+VR*CR,end/VD*CD0*100 where VD and VR are the volumes of the donor and receiver chambers, respectively. CD,end is the concentration of the test compound in the donor sample at the end time point. CR,end is the concentration of the test compound in the receiver sample at the end time point. CD0 is the concentration of the test compound in the donor sample at time zero. Concentrations of the test compound are expressed as peak areas of the test compound.
Fluorescein was used as the cell monolayer integrity marker. Fluorescein permeability assessment (in the A-B direction at pH 7.4 on both sides) was executed after the permeability assay for the test compound.

T1 sequence (P07374 whole entry, looked up): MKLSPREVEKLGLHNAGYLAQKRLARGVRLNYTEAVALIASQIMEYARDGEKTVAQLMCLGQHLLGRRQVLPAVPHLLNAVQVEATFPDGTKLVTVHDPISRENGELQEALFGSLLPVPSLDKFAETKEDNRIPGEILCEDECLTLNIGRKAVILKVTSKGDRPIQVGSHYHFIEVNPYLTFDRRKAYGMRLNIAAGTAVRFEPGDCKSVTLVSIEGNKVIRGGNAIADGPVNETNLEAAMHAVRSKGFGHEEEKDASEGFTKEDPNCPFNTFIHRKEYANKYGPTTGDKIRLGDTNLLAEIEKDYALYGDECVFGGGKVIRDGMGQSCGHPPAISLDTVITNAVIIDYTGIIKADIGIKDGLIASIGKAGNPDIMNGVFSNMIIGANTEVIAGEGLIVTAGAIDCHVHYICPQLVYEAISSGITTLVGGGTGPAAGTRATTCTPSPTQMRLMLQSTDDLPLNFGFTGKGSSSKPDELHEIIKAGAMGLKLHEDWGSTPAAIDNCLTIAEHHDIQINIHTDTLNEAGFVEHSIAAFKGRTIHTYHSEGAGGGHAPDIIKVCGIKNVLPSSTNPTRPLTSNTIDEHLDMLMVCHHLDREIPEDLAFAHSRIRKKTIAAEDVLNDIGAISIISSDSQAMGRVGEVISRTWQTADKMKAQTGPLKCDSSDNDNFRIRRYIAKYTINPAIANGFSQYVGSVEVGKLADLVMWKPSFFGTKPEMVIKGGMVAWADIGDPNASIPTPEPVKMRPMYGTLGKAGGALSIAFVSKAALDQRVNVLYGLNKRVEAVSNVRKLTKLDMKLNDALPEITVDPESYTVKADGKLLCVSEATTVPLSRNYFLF

Structure (SMILES)	melting point [°C]	IC50 (H. pylori [1]) [µM]	MIC (H. pylori [2]) [µM]	IC50 (Jack bean urease) [µM]	Papp (Caco-2 A-B permeability) [×10⁻⁶ cm/s]	recovery (Caco-2 A-B permeability) [%]	IC50 (Jack bean urease; indophenol method, triplicate, thiourea positive control, read-out: Potency against urease IC50 ± SEM) [µM]
O=S(=O)(Oc1cccc(-c2nc3sccn3c2-c2ccccc2)c1)c1ccccc1 (as salt: benzenesulfonate) [Compound 1e, 3-(5-Phenylimidazo[2,1-b]thiazol-6-yl)phenyl benzenesulfonate]	119 to 122	–	–	–	–	–	–
O=S(=O)(Oc1cccc(-c2nc3sccn3c2-c2ccccc2)c1)c1ccc(F)cc1 (as salt: benzenesulfonate) [Compound 1f, 3-(5-Phenylimidazo[2,1-b]thiazol-6-yl)phenyl 4-fluorobenzenesulfonate]	109 to 111	–	–	–	–	–	–
CS(=O)(=O)c1cccc(-c2c(-c3cccc(OS(=O)(=O)c4ccccc4)c3)nc3sccn23)c1 (as salt: benzenesulfonate) [Compound 2e, 3-(5-(3-(Methylsulfonyl)phenyl)imidazo[2,1-b]thiazol-6-yl)phenyl benzenesulfonate]	193 to 195	–	–	–	–	–	–
CS(=O)(=O)c1cccc(-c2c(-c3cccc(OS(=O)(=O)c4ccc(F)cc4)c3)nc3sccn23)c1 (as salt: benzenesulfonate) [Compound 2f, 3-(5-(3-(Methylsulfonyl)phenyl)imidazo[2,1-b]thiazol-6-yl)phenyl 4-fluorobenzenesulfonate]	103 to 105	–	–	–	–	–	–
CCS(=O)(=O)Oc1cccc(-c2nc3sccn3c2-c2ccccc2)c1 [Compound 1b, 3-(5-Phenylimidazo[2,1-b]thiazol-6-yl)phenyl ethanesulfonate]	119 to 121	82 ± 29	800	4.01 ± 0.11	–	–	–
CCCS(=O)(=O)Oc1cccc(-c2nc3sccn3c2-c2ccccc2)c1 [Compound 1c, 3-(5-Phenylimidazo[2,1-b]thiazol-6-yl)phenyl propane-1-sulfonate]	120 to 123	364	800 (≈ 319 µg/mL)	4.04 ± 0.09	–	–	–
O=S(=O)(Oc1cccc(-c2nc3sccn3c2-c2ccccc2)c1)c1ccccc1 [Compound 1e, 3-(5-Phenylimidazo[2,1-b]thiazol-6-yl)phenyl benzenesulfonate]	–	153 ± 33	400	4.3 ± 0.01	–	–	–
O=S(=O)(Oc1cccc(-c2nc3sccn3c2-c2ccccc2)c1)c1ccc(F)cc1 [Compound 1f, 3-(5-Phenylimidazo[2,1-b]thiazol-6-yl)phenyl 4-fluorobenzenesulfonate]	–	147	200 (≈ 90.1 µg/mL)	5.17 ± 0.01	–	–	–
Cc1ccc(S(=O)(=O)Oc2cccc(-c3nc4sccn4c3-c3ccccc3)c2)cc1 [Compound 1g, 3-(5-Phenylimidazo[2,1-b]thiazol-6-yl)phenyl 4-methylbenzenesulfonate]	103 to 106	37 ± 6	150 ± 29 (≈ 67 µg/mL)	3.22 ± 0.06	–	–	–
CNS(=O)(=O)Oc1cccc(-c2nc3sccn3c2-c2ccccc2)c1 [Compound 1i, 3-(5-Phenylimidazo[2,1-b]thiazol-6-yl)phenyl methylsulfamate]	161 to 164	285 ± 92	800 (≈ 308 µg/mL)	5.51 ± 0.17	–	–	–
O=S(=O)(Oc1cccc(-c2nc3sccn3c2-c2ccccc2)c1)N1CCCCC1 [Compound 1j, 3-(5-Phenylimidazo[2,1-b]thiazol-6-yl)phenyl piperidine-1-sulfonate]	112 to 115	131 ± 2	200 (≈ 87.9 µg/mL)	6.97 ± 0.09	–	–	–
CS(=O)(=O)Oc1cccc(-c2nc3sccn3c2-c2cccc(S(C)(=O)=O)c2)c1 [Compound 2a, 3-(5-(3-(Methylsulfonyl)phenyl)imidazo[2,1-b]thiazol-6-yl)phenyl methanesulfonate]	159 to 160	118 ± 5	250 ± 50	5.01 ± 0.03	–	–	–
CCS(=O)(=O)Oc1cccc(-c2nc3sccn3c2-c2cccc(S(C)(=O)=O)c2)c1 [Compound 2b, 3-(5-(3-(Methylsulfonyl)phenyl)imidazo[2,1-b]thiazol-6-yl)phenyl ethanesulfonate]	206 to 209	255 ± 35	800	4.97 ± 0.11	–	–	–
CS(=O)(=O)c1cccc(-c2c(-c3cccc(OS(=O)(=O)c4ccccc4)c3)nc3sccn23)c1 [Compound 2e, 3-(5-(3-(Methylsulfonyl)phenyl)imidazo[2,1-b]thiazol-6-yl)phenyl benzenesulfonate]	–	331 ± 21	409 ± 391	5.21 ± 0.03	–	–	–
Cc1ccc(S(=O)(=O)Oc2cccc(-c3nc4sccn4c3-c3cccc(S(C)(=O)=O)c3)c2)cc1 [Compound 2g, 3-(5-(3-(Methylsulfonyl)phenyl)imidazo[2,1-b]thiazol-6-yl)phenyl 4-methylbenzenesulfonate]	172 to 174	103 ± 88	275 ± 125 (≈ 144 µg/mL)	5.59 ± 0.04	–	–	–
CS(=O)(=O)c1cccc(-c2c(-c3cccc(OS(N)(=O)=O)c3)nc3sccn23)c1 [Compound 2h, 3-(5-(3-(Methylsulfonyl)phenyl)imidazo[2,1-b]thiazol-6-yl)phenyl sulfamate]	150 to 153	225 ± 5	400 (≈ 180 µg/mL)	4.72 ± 0.13	–	–	–
CNS(=O)(=O)Oc1cccc(-c2nc3sccn3c2-c2cccc(S(C)(=O)=O)c2)c1 [Compound 2i, 3-(5-(3-(Methylsulfonyl)phenyl)imidazo[2,1-b]thiazol-6-yl)phenyl methylsulfamate]	> 250	123 ± 15	250 ± 50 (≈ 116 µg/mL)	4.74 ± 0.21	–	–	–
CS(=O)(=O)c1cccc(-c2c(-c3cccc(OS(=O)(=O)N4CCCCC4)c3)nc3sccn23)c1 [Compound 2j, 3-(5-(3-(Methylsulfonyl)phenyl)imidazo[2,1-b]thiazol-6-yl)phenyl piperidine-1-sulfonate]	76 to 79	288 ± 18	800 (≈ 414 µg/mL)	5.82 ± 0.02	–	–	–
CC(CCc1ccccc1)NCC(O)c1ccc(O)c(C(N)=O)c1 (centres unmarked) [Labetalol, reference compound]	–	–	–	–	19.2 ± 0.56	99.1	–
CC(C)NCC(O)COc1cccc2ccccc12 (centres unmarked) [Propranolol, reference compound]	–	–	–	–	39 ± 0.44	88.7	–
NC(N)=S [thiourea, reference compound]	–	–	–	–	–	–	22.3 ± 0.031

— paper PMC10237672, “Design and synthesis of novel anti-urease imidazothiazole derivatives with promising antibacterial activity against Helicobacter pylori” (PLOS ONE, 2023)
